Results from ChEMBL document CHEMBL1124496, “Darmstoff analogues. 3. Actions of choline esters of acetal phosphatidic acids on visceral smooth muscle” (1989).

Species: Cavia porcellus
Experiment: Effective dose for relaxation of guinea pig taenia coli strips
Type: functional

Compared with `CCCCC/C=C/C/C=C/CCCCCCCC1OCC(COP(=O)([O-])OCC[N+](C)(C)C)O1` (stereo not drawn), `CCCCCCCC/C=C/CCCCCCCC1OCC(COP(=O)([O-])OCC[N+](C)(C)C)O1` (cis isomer) is 4-fold higher in ED60: 50 µM for the first, 200 µM for the second.

`CCCCCCCCCCCCCCCC1OCC(COP(=O)([O-])OCC[N+](C)(C)C)O1` (stereo not drawn) gave an ED60 of 57 µM.
